{"source": "patent US4937232A", "about": "“Inhibition of protein kinase C by long-chain bases” (priority 1988, dated 1990)", "key": {"[1]": {"test_system": "human neutrophils", "details": "cited from earlier work"}, "[2]": {"assay": "HL-60 cell growth and viability", "type": "cell-based, human", "details": "human, hl-60 cells, 8 nM PMA, 24 h", "experimental": "(§1) The HL-60 cells (obtained from the American Type Culture Collection, ATCC CCL240) were grown at 37° as a suspension culture in 175 cm^2 Nunc tissue culture flasks (Vangard International, Neptune, N.J.). The cells were subcultured at a density of 0.25×10^6 cells/ml and used between passage numbers 30 and 40.\n(§2) Cells were centrifuged at 600 g for 3 min, and added at 1×10^5 cells per well in 12-well culture dishes. Medium, PMA, and long-chain bases (prepared as the 1:1 molar complex with fatty acid-free bovine serum albumin) at the indicated concentrations were added for a total volume of 2.0 ml. After the desired times, the cells in suspension were counted and checked for viability (trypan blue exclusion) with a hemacytometer. The attached cells were quantitated by measuring DNA content according to the method of West et al (Anal. Biochem., 147, 289-295, 1985) and by assaying for acid phosphatase according to the method of Schnyder (J. Exp. Med., 148, 434-445, 1978)."}, "[3]": {"test_system": "HL-60 cells", "assay": "HL-60 cell growth and viability", "type": "cell-based, human", "details": "Homo sapiens, HL-60, 24 h, read-out: inhibition of growth of HL-60 cells", "experimental": "as §1, §2"}, "[4]": {"test_system": "HL-60 cells", "assay": "PMA-induced adherence (attachment) of HL-60 cells", "type": "cell-based, human", "experimental": "as §2"}, "[5]": {"test_system": "HL-60 cells", "assay": "Acid phosphatase activities of suspended and attached HL-60 cells", "type": "cell-based, human", "details": "8 nM PMA, 0 μM sphinganine", "experimental": "as §2"}, "[6]": {"test_system": "human neutrophils", "assay": "[32P]-phosphate incorporation into TCA-precipitable material of neutrophils", "type": "cell-based", "details": "PMA (1 μM)", "experimental": "Neutrophils (1.4×10^8 cells) were preincubated in with 0.5 mCi Na2 H^32 PO4 in buffer containing […] NaCl, 5.56 mM glucose, 10 mM Hepes, and 0.33 mM CaCl2 for a total of 1 hr at 37° C. in a shaking waterbath. Excess unbound counts were removed by centrifugation and resuspension, repeated five times. The cells were then divided into 4 treatment groups (see RESULTS below) containing approximately 3.5×10^7 cells each. All groups were incubated at 37° C. in a shaking waterbath for the same total time. Some samples were incubated 10 min. with sphinganine (40 μM) prior to addition of 1 μM PMA (final concentration), with which they were incubated for an additional 15 min. The reaction was stopped by addition of an equal volume of boiling SDS dissociation buffer (9% SDS, 1% mercaptoethanol, 15% glycerol, 30 mM Tris, pH 7.8). The samples were run on a 12% SDS-polyacrylamide gel using the method of Rudolph and Krueger (Adv. Cyclic Nucleotide Res. 101, 107-133, 1979). The gels were dried using a Bio-Rad model 2400 Gel Slab Dryer. Autoradiography was performed on the dried gels using Kodak X-omat X-ray film and Dupont Cronex intensifying screens. The gels were exposed for 12 hrs at -70° C.\nAlternatively, neutrophils were preincubated as described above using 0.1 mCi of ^32 P labeled phosphate. The cells were broken by 5 min. of sonication using an Ultramet III waterbath sonicator, and 5% (final concentration) trichloroacetic acid was added to each sample. […] The precipitate was filtered and washed extensively using an Amicon filtration system and counted using a Beckman LS7000 scintillation counter."}, "[7]": {"test_system": "human neutrophils", "assay": "Oxygen consumption (oxidative burst) of human neutrophils", "type": "cell-based", "details": "for IC50: oxidative burst, PMA activation, read-out: Concentration required for 50% inhibition", "source_text": "Human neutrophils were obtained by continuous flow leukapheresis from normal adults. Residual erythrocytes were removed by hypotonic lysis with a resulting purity of >95% neutrophils. Alternatively peripheral blood was obtained by phlebotomy and neutrophils were isolated by HESPAN (6% Hetastarch, 0.9% NaCl) sedimentaion of erythrocytes, centrifugation through lymphocyte separation medium (9.4% sodium diatrizoate, 6.2% Ficoll), and hypotonic lysis of residual erythrocytes. Isolated cells were resuspended in phosphate buffered saline (PBS)-glucose, containing 0.6 mM CaCl2, 2.6 mM KCl, 1.5 mM KH2 PO4, 0.5 mM MgCl2, 136 mM NaCl, 8 mM Na2 HPO4, 5.5 mM glucose.\nOxygen consumption was measured using a Clark-type electrode with YSI model 53 oxygen monitor. Assays were conducted at 37° C. with 6.5×10^6 cells per ml with a total volume of either 2.5 ml or 4 ml. Effectors were injected into the electrode chamber using a Hamilton syringe. Initial slopes after the addition of the stimuli were used for rate calculations. For activators with a lag prior to the onset of the oxidative burst, maximal rates following the lag were used."}, "[8]": {"test_system": "HL-60 cells", "assay": "Morphology and marker enzymes (ANA esterase, acid phosphatase) of HL-60 cells on day 3", "type": "cell-based, human", "details": "8 nM PMA, 0 μM sphinganine, 3 days", "source_text": "Expression of most other signs of HL-60 cell differentiation requires longer time periods after treatment with PMA. For these experiments, the cells were examined on day 3 for adherence and acid phosphatase activity (Table IV) and morphology and the marker enzymes alpha-naptholacetate (ANA) esterase and acid phosphatase (Table V)."}, "[9]": {"test_system": "phorbol ester binding site (protein kinase C) of neutrophils", "assay": "Cellular [3H]-phorbol dibutyrate binding in neutrophils", "parameters": "species or system human", "details": "50 μM; 15 min", "experimental": "Neutrophils (1×10^8 cells/ml) were preincubated with the indicated concentration of sphinganine, palmitic acid, or ceramide for five minutes prior to the addition of 50 nM (final concentration) of [^3 H]-phorbol dibutyrate (specific activity of 8.3 Ci/mMole). The cells were incubated an additional 15 min. in a shaking waterbath at 37° C. The incubation mixtures were filtered using an Amicon filtration manifold model VFM-III and washed 5 times with 5 mls of ice-cold PBS-glucose. The filters were counted using a Beckman LS7000 scintillation counter."}, "[10]": {"test_system": "protein kinase C", "assay": "Triton X-100 mixed micellar assay for protein kinase C activity", "type": "biochemical, rat", "details": "mixed micellar assay", "experimental": "Protein kinase C was partially purified from rat brain as described by Hanrun et al (J. Biol. Chem., 260, 10043, 1985), which is hereby incorporated by reference.\nProtein kinase C was assayed with Triton X-100 mixed micelles as described by Hanrun et al, (ibid.), Sphingosine was dried down with the lipid cofactors."}}, "note": "Several values for one entry are separate records, joined by “and”; a condition that tells them apart may be missing. Equal values may be shown once. Entries after “also recorded” stand apart in the source; their conditions may differ. Read-outs that look alike come from different tables or passages of the source.", "data": [{"molecule": "CC1CNCCN1S(=O)(=O)c1cccc2cnccc12", "note": "(stereo not shown) [H-7]", "values": [{"measurement": "inhibition of the respiratory burst in human neutrophils", "setting": "[1]", "value": "incapable of inhibiting"}]}, {"molecule": "NCCNS(=O)(=O)c1cccc2cnccc12", "note": "[H-9]", "values": [{"measurement": "inhibition of the respiratory burst in human neutrophils", "setting": "[1]", "value": "incapable of inhibiting"}]}, {"molecule": "CCCCCCCCCCCCCC(=O)O[C@@H]1[C@@H](C)[C@@]2(O)[C@@H](C=C(CO)C[C@]3(O)C(=O)C(C)=C[C@@H]23)[C@@H]2C(C)(C)[C@]12OC(C)=O", "note": "[PMA, Phorbol 12-myristate 13-acetate, reference compound]", "values": [{"measurement": "viability at 24 h, 0.008 µM", "setting": "[2]; 0 μM sphinganine, read-out: Percent viability of suspended cells", "value": 60, "unit": "%"}, {"measurement": "viability at 24 h, 0.008 µM", "setting": "[2]; read-out: % Viability", "value": 80, "unit": "%"}, {"measurement": "inhibition at 0.008 µM", "setting": "[3]", "value": 70, "unit": "%"}, {"measurement": "number of adherent cells", "setting": "[4]; 8 nM PMA alone, 24 h", "value": "0.76 ×10^5"}, {"measurement": "Adherent cells (%)", "setting": "[4]; 8 nM PMA, 0 μM sphinganine, 72 h", "value": 96, "unit": "%"}, {"measurement": "% Adherence", "setting": "[4]; 8 nM PMA, 24 h", "value": "61% and 61.3 ± 1.0%"}, {"measurement": "Acid phosphatase activity, Adherent", "setting": "[5]; 24 h", "value": "0.52 ± 0.01", "unit": "nmol/h/dish"}, {"measurement": "Acid phosphatase activity, Suspended", "setting": "[5]; 24 h", "value": "0.11 ± 0.05", "unit": "nmol/h/dish"}, {"measurement": "Adherence (% of total)", "setting": "[5]; 24 h", "value": "83 % of total"}, {"measurement": "Acid phosphatase activity, Adherent", "setting": "[5]; 72 h", "value": "2.20 ± 0.09", "unit": "nmol/h/dish"}, {"measurement": "Acid phosphatase activity, Adherent (%)", "setting": "[5]; 72 h", "value": 98, "unit": "%"}, {"measurement": "Acid phosphatase activity, Suspended", "setting": "[5]; 72 h", "value": "0.05 ± 0.01", "unit": "nmol/h/dish"}, {"measurement": "[32P]-phosphate incorporation into TCA-precipitable material", "setting": "[6]", "value": 4912, "unit": "COUNTS PER MINUTE"}, {"measurement": "RATE of oxygen consumption, NO SPHINGANINE", "setting": "[7]; activator alone", "value": "4.3 nmols O2 consumed/min/10^6 cells"}, {"measurement": "Acid phosphatase", "setting": "[8]; adherent cells", "value": 0.60, "unit": "nmol/h/105 cells"}, {"measurement": "Acid phosphatase", "setting": "[8]; suspended cells", "value": 0.30, "unit": "nmol/h/105 cells"}]}, {"molecule": "CCCCCCCCCCCCCCCC(=O)O", "note": "[Palmitic acid, reference compound]", "values": [{"measurement": "IC50", "setting": "[7]; Homo sapiens, Neutrophil", "value": "> 100", "unit": "µM"}, {"measurement": "displacement of [3H]-phorbol dibutyrate", "setting": "[9]", "value": 3, "unit": "%"}]}, {"molecule": "Ceramide", "values": [{"measurement": "inhibition of PMA-induced attachment", "setting": "[4]; 8 nM PMA", "value": "not inhibitory"}, {"measurement": "IC50", "setting": "[7]", "value": "> 100", "unit": "µM"}, {"measurement": "inhibition of protein kinase C (specificity)", "setting": "[10]", "value": "did not activate or inhibit"}, {"measurement": "inhibition of protein kinase C (specificity)", "setting": "[10]; listed as ceramide", "value": "without effect; also recorded: not to be inhibitors"}, {"measurement": "displacement of [3H]-phorbol dibutyrate", "setting": "[9]", "value": 18, "unit": "%"}]}]}
